From patent publication US20080214445A1, “Method of Treating a Solid Tumor Disease Comprising Administering a Combination Comprising Imatinib and an Inhibitor of an Efflux Pump Active at the Blood Brain Barrier or Demethyl Imatinib” (priority 2005, published 2008)
Blank lines part the entries; values can stand above or below the molecule they belong to.

Legend:
Rat C6 glioma cells = assay: Accumulation of CGP74588 into rat C6 glioma cells; format: cell-based; details: for average fold increase of CGP74588 accumulation: 15 min pre-incubation, 1 min incubation with CGP74588, rat C6 cells
Method: Rat C6 glioma cells are used as a model for glioma in in vitro or in vivo studies, to investigate the effect of this combination on cell proliferation.
Rat C6 glioma cells are maintained in high glucose Dulbecco's modified medium supplemented with 10% fetal calf serum and […] L-Glutamine in a humidified atmosphere of 95% air-5% CO2. All accumulation assays are conducted on cultures at confluence. For this purpose, the cells are seeded on 24-well plates at a density of 100×10^3 cells/cm^2 and left to proliferate in culture medium for 48 h.
For competition assays, the cultures are pre-incubated with various concentrations of the different competitors for 15 min. […] The cellular accumulation of 1.5 μM CGP74588 is also studied in C6 cells that have been pre-incubated with hydroxyurea (1, 10, 100 or 1000 μM) for 48 h.

BCRP = biological target: T1, BCRP (Homo sapiens, UniProt Q9UNQ0); assay: BCRP efflux pump inhibition / transport
T1 sequence (Q9UNQ0 1-655): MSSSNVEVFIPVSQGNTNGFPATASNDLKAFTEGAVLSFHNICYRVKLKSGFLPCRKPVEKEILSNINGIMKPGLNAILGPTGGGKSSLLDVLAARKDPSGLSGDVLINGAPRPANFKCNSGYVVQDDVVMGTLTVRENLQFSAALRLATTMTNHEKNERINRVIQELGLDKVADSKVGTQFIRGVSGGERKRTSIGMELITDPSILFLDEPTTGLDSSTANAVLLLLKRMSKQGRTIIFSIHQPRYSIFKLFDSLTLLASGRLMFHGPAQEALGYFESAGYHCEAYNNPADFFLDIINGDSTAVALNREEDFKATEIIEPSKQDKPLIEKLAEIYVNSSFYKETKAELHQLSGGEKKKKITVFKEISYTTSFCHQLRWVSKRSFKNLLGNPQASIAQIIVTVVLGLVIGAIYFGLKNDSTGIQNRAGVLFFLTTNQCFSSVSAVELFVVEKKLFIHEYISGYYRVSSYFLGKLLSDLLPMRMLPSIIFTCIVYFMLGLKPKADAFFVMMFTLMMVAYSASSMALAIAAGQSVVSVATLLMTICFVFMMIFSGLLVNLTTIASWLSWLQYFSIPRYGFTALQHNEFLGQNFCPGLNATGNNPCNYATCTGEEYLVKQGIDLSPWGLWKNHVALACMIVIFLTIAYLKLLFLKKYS

in vivo = details: Hanover Wistar, rat, iv, 12.5 mg/kg
[1] = system: P-glycoprotein and Breast-Cancer Resistance Protein (suggested by experiments in mdr1a1b(-/-) mice); assay: in vivo; details: FVB, mouse
[2] = Hanover Wistar, rat, in vivo, iv
[3] = FVB wild-type mice; co-perfusion of valspodar 10 μM with imatinib 0.5 μM
[4] = Blood and brain pharmacokinetics in Hanover Wistar rats after intravenous [14C]STI571 with or without PSC833
[5] = Concentration of STI571 in brain, Mean
[6] = Concentration of STI571 in brain, individual data

SMILES: COc1cc2c(cc1OC)CN(CCc1ccc(NC(=O)c3cccc4c(=O)c5cccc(OC)c5[nH]c34)cc1)CC2 [elacridar]
average fold increase of CGP74588 accumulation (Rat C6 glioma cells; inhibitor 1 μM): 1.7 fold | average fold increase of CGP74588 accumulation (Rat C6 glioma cells; inhibitor 10 μM): 2.3 fold

SMILES: Cl.Cl.Cl.O[C@@H](COc1cccc2ncccc12)CN1CCN(C2c3ccccc3[C@@H]3[C@H](c4ccccc42)C3(F)F)CC1 (stereo partly drawn) [zosuquidar, 1-[4-(1,1-difluor-1,1aR,6S,10bS-tetrahydrodibenzo[a,e]-cyclo-propa[c]cyclohepten-6-yl)piperazin-1-yl]-3-(chinolin-5-yloxy)-2(R)-propanol-trihydrochloride]
average fold increase of CGP74588 accumulation (Rat C6 glioma cells; inhibitor 1 μM): 1.7 fold | average fold increase of CGP74588 accumulation (Rat C6 glioma cells; inhibitor 10 μM): 2.3 fold

More lines, main results first:

BCRP inhibition (BCRP): not | transport by efflux pump (BCRP): dominated by BCRP
SMILES: Cc1ccc(NC(=O)c2ccc(CN3CCNCC3)cc2)cc1Nc1nccc(-c2cccnc2)n1 [CGP74588, N-{5-[4-(piperazino-methyl)-benzoylamido]-2-methylphenyl}-4-(3-pyridyl)-2-pyrimidine-amine]
accumulation in rat C6 cells (Rat C6 glioma cells; CGP74588 0.5-50 μM): concentration dependant

Cmax (in vivo): 893 ng/g | Tmax (in vivo): 15 min | concentration at 0.25 h (in vivo; [5]): 893 ng/g | concentration at 0.5 h (in vivo; [5]): 533 ng/g | concentration at 1 h (in vivo; [5]): 550 ng/g | concentration at 2 h (in vivo; [5]): 333 ng/g | concentration at 4 h (in vivo; [5]): 115 ng/g | concentration at 8 h (in vivo; [5]): 38 ng/g | concentration at 1 h (in vivo; [6]): 540 ng/g | concentration at 2 h (in vivo; [6]): 402 ng/g | concentration at 4 h (in vivo; [6]): 102 ng/g | concentration at 8 h (in vivo; [6]): 52 ng/g | Km [1]: 5 to 10 µM | time post dose at which brain Cmax is reached [2]: 15 min
SMILES: Cc1ccc(NC(=O)c2ccc(CN3CCN(C)CC3)cc2)cc1Nc1nccc(-c2cccnc2)n1 [STI571, N-{5-[4-(4-methyl-piperazino-methyl)-benzoylamido]-2-methylphenyl}-4-(3-pyridyl)-2-pyrimidine-amine]

effect on distribution of imatinib into the brain [3]: markedly enhance | effect on the elimination slope of unchanged STI571 from brain to blood ([4]; 12.5 mg/kg STI571 and 10 mg/kg PSC833 i.v.): does not significantly modify | impact on the plasma pharmacokinetics of imatinib ([4]; valspodar 10 mg/kg i.v. with imatinib 12.5 mg/kg i.v.): no significant impact
SMILES: C/C=C/C[C@@H](C)C(=O)[C@H]1C(=O)N[C@@H](C(C)C)C(=O)N(C)CC(=O)N(C)[C@@H](CC(C)C)C(=O)N[C@@H](C(C)C)C(=O)N(C)[C@@H](CC(C)C)C(=O)N[C@@H](C)C(=O)N[C@H](C)C(=O)N(C)[C@@H](CC(C)C)C(=O)N(C)[C@@H](CC(C)C)C(=O)N(C)[C@@H](C(C)C)C(=O)N1C [valspodar, [3′-desoxy-3′-oxo-MeBmt]^1-[Val]^2-Ciclosporin A]
average fold increase of CGP74588 accumulation (Rat C6 glioma cells; inhibitor 1 μM): 1.7 fold | average fold increase of CGP74588 accumulation (Rat C6 glioma cells; inhibitor 10 μM): 2.3 fold
